Patent US8192962B2, “Processes for detecting toxic substances” (Daikin Industries, Ltd., priority 2001, dated 2012)

Test system: Mitochondria-located protein genes
Experiment: DNA chip mRNA expression in yeast, mitochondria-located protein genes (Table 2)
Assay type: cell-based, Saccharomyces cerevisiae S288C
Settings: cells incubated two hours with the chemical substance
How it was run: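 Untreated cultures served as reference for log-phase S288C yeast given a growth-inhibiting, non-lethal toxicant dose for 2 h at 25° C. in YPD. Gene expression was measured on a whole-genome DNA chip from Cy3/Cy5-labeled cDNA.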

Measured: The level of expressed mRNA in the presence of chemical substance/The level of expressed mRNA in the absence of chemical substance

CCCCCCCCCCCCOS(=O)(=O)[O-].[Na+] [(18), sodium lauryl sulfate]
1.0: yeast gene YBR091C | yeast gene YBR221C | yeast gene YCR046C | yeast gene YGL018C | yeast gene YHR008C | yeast gene YKL148C | yeast gene YLR259C | yeast gene YLR348C | yeast gene YNL073W | yeast gene YOR142W | yeast gene YOR316C
1.7: yeast gene YDL067C | yeast gene YGL191W | yeast gene YKL016C | yeast gene YLL041C | yeast gene YNL055C | yeast gene YOR020C | yeast gene YPL135W | yeast gene YPR037C
0.9: yeast gene YER178W | yeast gene YFL016C | yeast gene YJR045C | yeast gene YMR152W | yeast gene YNL104C
1.3: yeast gene YBR003W | yeast gene YBR044C | yeast gene YBR185C | yeast gene YCR083W | yeast gene YDR079W | yeast gene YDR231C | yeast gene YDR258C | yeast gene YML129C | yeast gene YMR267W | yeast gene YOR150W | yeast gene YOR187W | yeast gene YPL134C
0.6: yeast gene YNL256W
1.5: yeast gene YBR122C | yeast gene YEL024W | yeast gene YGR076C | yeast gene YLR295C | yeast gene YPR047W
1.8: yeast gene YKL141W
1.2: yeast gene YBL099W | yeast gene YBR282W | yeast gene YDR347W | yeast gene YJL096W | yeast gene YKL003C | yeast gene YNL071W | yeast gene YOL096C | yeast gene YPL262W | yeast gene YPR134W
4.2: yeast gene YGR008C
1.6: yeast gene YDR298C | yeast gene YML054C | yeast gene YML120C | yeast gene YOR037W
1.9: yeast gene YBL038W
3.6: yeast gene YKL142W
2.3: yeast gene YDR178W | yeast gene YDR529C | yeast gene YGR174C | yeast gene YLR395C
2.4: yeast gene YGL187C | yeast gene YMR035W
4.0: yeast gene YJL166W
0.7: yeast gene YBL022C | yeast gene YJL133W | yeast gene YLR304C | yeast gene YMR203W
1.4: yeast gene YBR251W | yeast gene YDL181W | yeast gene YIL155C | yeast gene YJL180C | yeast gene YJR121W | yeast gene YKL170W | yeast gene YMR023C
2.5: yeast gene YDR377W
3.1: yeast gene YGR244C
2.6: yeast gene YGR028W
1.1: yeast gene YAL039C | yeast gene YBL030C | yeast gene YCL057W | yeast gene YDL198C | yeast gene YEL039C | yeast gene YGR062C | yeast gene YJL102W | yeast gene YKL194C | yeast gene YKR066C | yeast gene YMR083W | yeast gene YMR089C | yeast gene YOR130C | yeast gene YPL040C | yeast gene YPL215W
0.8: yeast gene YGR082W | yeast gene YJR077C | yeast gene YOR100C | yeast gene YPR024W
2.1: yeast gene YLR038C | yeast gene YOR176W
